Measured values as given in US20210038607A1, “OXADIAZOLYLTHIOPHENE DERIVATIVES USEFUL AS HISTONE DEACETYLASE INHIBITORS” (Karus Therapeutics Limited, priority 2018, published 2021).

Tests used:
[1] = target: T1, Human HDAC5 (Homo sapiens, UniProt Q9UQL6); test: HDAC5 biochemical assay, class IIa-specific substrate; conditions: read-out: HDAC Isoform IC50 (nM) 5
T1 construct: full length with C-terminal His tag, MW=51.1 kDa; His (C); host or cells: baculovirus expression system
Description: (§1) Activity against all zinc-dependent HDACs 1 to 11 was assessed by using an acetylated AMC-labeled peptide substrate. The substrate RHKK(Ac)AMC was used for HDAC1, HDAC2, HDAC3, HDAC6 and HDAC10; the substrate used for HDAC8 was RHK(Ac)K(Ac)AMC. Activity against the class IIa HDACs (HDAC4, 5, 7, 9) and HDAC11 was determined using a class IIa-specific substrate, BOC-Lys(trifluoroacetyl)-AMC (“Trifluoroacetyl Lysine”; see Lahm et al, 2007, PNAS, 104, 17335-17340). All assays were based on the AMC-labeled substrate and developer combination.
(§2) The protocol involved a two-step reaction: first, the substrate with the acetylated lysine side chain is incubated with a sample containing HDAC activity, to produce the deacetylated products, which are then digested in the second step by the addition of developer to produce the fluorescent signal proportional to the amount of deacetylated substrates.
Human HDAC5 (GenBank Accession No. NM_005474), full length with C-terminal His tag, MW=51.1 kDa, expressed in baculovirus expression system.
(§3) Assay Buffer: 50 mM Tris-HCl, pH8.0, 137 mM NaCl, 2.7 mM KCl, 1 mM MgC2. Before use, 1 mg/mL BSA and DMSO are added.
(§4) For class IIa HDACs, assay buffer is the same.
HDAC5: 0.05 ng/ul HDAC5 and 50 μM Class IIa HDAC substrate are in the reaction buffer with 1% DMSO final. Incubate for 30 minutes at room temperature.
(§5) Stage 1: Deacetylation of substrate by incubation of HDAC enzymes with compounds
(§6) Stage 2: Development by addition of Developer to digest the deacetylated substrate, and generate the fluorescent colour; Detection: 360/460 Ex/Em

[2] = target: T2, Human HDAC9 (Homo sapiens, UniProt Q9UKV0); test: HDAC9 biochemical assay, class IIa-specific substrate; conditions: read-out: HDAC Isoform IC50 (nM) 9
T2 construct: amino acids 604-1066 with C-terminal His tag; His (C); host or cells: baculovirus expression system
Description: as §1, §2
Human HDAC9 (GenBank Accession No. NM_178423), amino acids 604-1066 with C-terminal His tag, MW=50.7 kDa, expressed in baculovirus expression system.
as §3, §4
HDAC9: 0.06 ng/ul HDAC9 and 50 μM Class IIa HDAC substrate are in the reaction buffer with 1% DMSO final. Incubate for 30 minutes at room temperature.
as §5, §6

[3] = target: T3, Human HDAC7 (Homo sapiens, UniProt Q8WUI4); test: HDAC7 biochemical assay, class IIa-specific substrate; conditions: read-out: HDAC Isoform IC50 (nM) 7
T3 construct: (a.a. 518-end) with N-terminal GST tag; GST (N); host or cells: baculovirus expression system
T3 sequence (Q8WUI4 518-952 limits assumed): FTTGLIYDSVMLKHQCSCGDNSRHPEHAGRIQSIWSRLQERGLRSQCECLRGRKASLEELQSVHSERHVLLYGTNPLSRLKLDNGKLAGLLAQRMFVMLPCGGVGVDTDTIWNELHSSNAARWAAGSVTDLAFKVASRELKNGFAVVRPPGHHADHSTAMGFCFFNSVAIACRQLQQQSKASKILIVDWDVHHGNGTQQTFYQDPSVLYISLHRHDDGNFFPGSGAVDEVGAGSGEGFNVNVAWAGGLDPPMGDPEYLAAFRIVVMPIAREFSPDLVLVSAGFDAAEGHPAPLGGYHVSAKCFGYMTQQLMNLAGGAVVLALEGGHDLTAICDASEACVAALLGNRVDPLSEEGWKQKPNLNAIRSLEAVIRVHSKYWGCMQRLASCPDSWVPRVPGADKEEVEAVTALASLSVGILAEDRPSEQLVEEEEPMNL
Description: as §1, §2
Human HDAC7 (GenBank Accession No. AY302468), (a.a. 518-end) with N-terminal GST tag, MW=78 kDa, expressed in baculovirus expression system.
as §3, §4
HDAC7: 0.001 ng/ul HDAC7 and 50 μM Class IIa HDAC substrate are in the reaction buffer with 1% DMSO final. Incubate for 30 minutes at room temperature.
as §5, §6

[4] = target: T4, Human HDAC1 (Homo sapiens, UniProt Q13547); test: HDAC1 biochemical assay, AMC-labeled peptide substrate; conditions: read-out: HDAC Isoform IC50 (nM) 1
T4 construct: full length with C-terminal His-tag and C-terminal FLAG-tag; His (C); FLAG (C); host or cells: baculovirus expression system
Description: as §1, §2
Human HDAC1 (GenBank Accession No. NM_004964), full length with C-terminal His-tag and C-terminal FLAG-tag, MW=56 kDa, expressed in baculovirus expression system.
as §3
HDAC1: 0.3 ng/ul HDAC1 and 50 μM HDAC substrate are in the reaction buffer with 1% DMSO final. Incubate for 1 hour at 30° C.
as §5, §6

[5] = target: T5, Human HDAC4 (Homo sapiens, UniProt P56524); test: HDAC4 biochemical assay, class IIa-specific substrate; conditions: read-out: HDAC Isoform IC50 (nM) 4
T5 construct: amino acids 627-1085 with N-terminal GST tag; GST (N); host or cells: baculovirus expression system
Description: as §1, §2
Human HDAC4 (GenBank Accession No. NM_006037), amino acids 627-1085 with N-terminal GST tag, MW=75.2 kDa, expressed in baculovirus expression system.
as §3, §4
HDAC4: 0.004 ng/ul HDAC4 and 50 μM Class IIa HDAC substrate are in the reaction buffer with 1% DMSO final. Incubate for 30 minutes at room temperature.
as §5, §6

[6] = target: T6, Recombinant human HDAC6 (Homo sapiens, UniProt Q9UBN7); test: HDAC6 biochemical assay, AMC-labeled peptide substrate; conditions: HDAC6; read-out: HDAC Isoform IC50 (nM) 6
T6 construct: full length, MW=159 kDa; GST (N); host or cells: Sf9 insect cells (baculovirus)
T6 sequence (Q9UBN7 1-1215): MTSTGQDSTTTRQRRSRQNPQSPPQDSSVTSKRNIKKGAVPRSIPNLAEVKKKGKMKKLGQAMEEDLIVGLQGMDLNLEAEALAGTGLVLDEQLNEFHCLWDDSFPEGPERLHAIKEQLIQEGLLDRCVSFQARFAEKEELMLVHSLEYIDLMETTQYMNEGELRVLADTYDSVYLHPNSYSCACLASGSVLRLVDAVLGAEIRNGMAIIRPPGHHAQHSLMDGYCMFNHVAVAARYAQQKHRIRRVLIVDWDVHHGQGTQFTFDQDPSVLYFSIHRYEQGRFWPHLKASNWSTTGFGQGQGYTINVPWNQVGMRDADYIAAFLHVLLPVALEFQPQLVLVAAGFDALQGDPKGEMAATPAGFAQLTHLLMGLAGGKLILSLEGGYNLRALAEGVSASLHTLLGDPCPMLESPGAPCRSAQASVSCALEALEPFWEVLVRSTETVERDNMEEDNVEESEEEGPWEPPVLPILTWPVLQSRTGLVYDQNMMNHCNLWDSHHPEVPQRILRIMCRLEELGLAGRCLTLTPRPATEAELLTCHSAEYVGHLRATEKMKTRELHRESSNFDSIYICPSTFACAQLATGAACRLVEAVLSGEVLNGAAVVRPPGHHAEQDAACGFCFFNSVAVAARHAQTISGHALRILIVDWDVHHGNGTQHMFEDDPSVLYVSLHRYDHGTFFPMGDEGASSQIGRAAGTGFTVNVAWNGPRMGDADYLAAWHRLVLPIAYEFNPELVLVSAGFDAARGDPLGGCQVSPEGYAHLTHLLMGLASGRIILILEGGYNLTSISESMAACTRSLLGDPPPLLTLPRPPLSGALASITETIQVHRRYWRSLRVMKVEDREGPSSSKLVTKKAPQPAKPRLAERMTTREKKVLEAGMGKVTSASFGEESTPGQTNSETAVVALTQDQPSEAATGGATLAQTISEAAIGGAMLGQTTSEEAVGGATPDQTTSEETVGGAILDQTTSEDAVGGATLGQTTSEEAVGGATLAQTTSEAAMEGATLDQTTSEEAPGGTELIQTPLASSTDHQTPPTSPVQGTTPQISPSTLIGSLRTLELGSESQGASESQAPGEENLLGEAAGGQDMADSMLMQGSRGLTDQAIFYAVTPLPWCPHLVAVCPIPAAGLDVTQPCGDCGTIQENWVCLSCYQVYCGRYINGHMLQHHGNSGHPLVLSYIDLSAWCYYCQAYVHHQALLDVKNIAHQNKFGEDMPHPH
Description: as §1, §2
Recombinant human HDAC6 (GenBank Accession No. BC069243), full length, MW=159 kDa, was expressed by baculovirus in Sf9 insect cells using an N-terminal GST tag.
as §3
HDAC6: 0.3 ng/ul HDAC6 and 50 μM HDAC substrate are in the reaction buffer with 1% DMSO final. Incubate for 1 hours at 30° C.
as §5, §6

T1 sequence (Q9UQL6 656-1122 limits assumed): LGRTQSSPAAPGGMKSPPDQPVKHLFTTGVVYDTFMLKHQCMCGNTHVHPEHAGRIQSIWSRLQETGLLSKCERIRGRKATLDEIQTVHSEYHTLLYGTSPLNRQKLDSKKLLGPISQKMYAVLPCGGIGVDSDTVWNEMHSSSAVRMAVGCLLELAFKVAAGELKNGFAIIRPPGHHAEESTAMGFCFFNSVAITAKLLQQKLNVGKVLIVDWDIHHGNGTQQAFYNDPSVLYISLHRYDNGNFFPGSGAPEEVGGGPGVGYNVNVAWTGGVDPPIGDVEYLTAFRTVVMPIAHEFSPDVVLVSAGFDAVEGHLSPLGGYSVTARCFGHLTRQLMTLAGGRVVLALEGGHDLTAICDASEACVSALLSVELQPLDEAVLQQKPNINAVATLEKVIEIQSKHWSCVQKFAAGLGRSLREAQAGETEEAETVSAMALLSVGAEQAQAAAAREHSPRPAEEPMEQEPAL
T5 sequence (P56524 627-1084 limits assumed): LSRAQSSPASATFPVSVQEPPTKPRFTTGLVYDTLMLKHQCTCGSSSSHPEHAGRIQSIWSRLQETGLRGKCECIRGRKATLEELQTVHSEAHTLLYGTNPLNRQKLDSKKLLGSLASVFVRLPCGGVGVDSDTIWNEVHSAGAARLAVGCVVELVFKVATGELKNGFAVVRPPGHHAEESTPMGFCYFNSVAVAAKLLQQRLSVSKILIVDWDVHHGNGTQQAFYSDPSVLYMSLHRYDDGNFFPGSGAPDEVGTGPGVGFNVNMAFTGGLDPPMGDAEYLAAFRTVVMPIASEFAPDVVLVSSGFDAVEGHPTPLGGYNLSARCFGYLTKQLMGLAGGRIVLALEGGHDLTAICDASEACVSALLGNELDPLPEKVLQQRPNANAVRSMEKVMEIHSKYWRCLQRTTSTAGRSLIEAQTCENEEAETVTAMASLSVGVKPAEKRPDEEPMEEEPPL
T4 sequence (Q13547 whole entry, canonical isoform): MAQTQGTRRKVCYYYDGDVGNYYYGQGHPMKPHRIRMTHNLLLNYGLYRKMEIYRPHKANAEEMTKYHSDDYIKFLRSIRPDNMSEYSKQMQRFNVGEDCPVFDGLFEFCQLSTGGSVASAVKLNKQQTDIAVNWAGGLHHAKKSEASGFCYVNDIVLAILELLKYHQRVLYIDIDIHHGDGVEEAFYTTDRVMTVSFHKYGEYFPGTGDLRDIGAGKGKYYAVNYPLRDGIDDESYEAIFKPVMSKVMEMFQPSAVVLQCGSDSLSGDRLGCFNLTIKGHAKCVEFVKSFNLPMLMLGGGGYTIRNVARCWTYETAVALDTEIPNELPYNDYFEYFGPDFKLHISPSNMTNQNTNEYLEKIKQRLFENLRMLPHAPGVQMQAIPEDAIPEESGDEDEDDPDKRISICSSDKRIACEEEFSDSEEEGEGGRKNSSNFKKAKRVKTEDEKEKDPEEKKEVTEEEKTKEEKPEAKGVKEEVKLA
T2 sequence (Q9UKV0 604-1066 isoform Q9UKV0-5): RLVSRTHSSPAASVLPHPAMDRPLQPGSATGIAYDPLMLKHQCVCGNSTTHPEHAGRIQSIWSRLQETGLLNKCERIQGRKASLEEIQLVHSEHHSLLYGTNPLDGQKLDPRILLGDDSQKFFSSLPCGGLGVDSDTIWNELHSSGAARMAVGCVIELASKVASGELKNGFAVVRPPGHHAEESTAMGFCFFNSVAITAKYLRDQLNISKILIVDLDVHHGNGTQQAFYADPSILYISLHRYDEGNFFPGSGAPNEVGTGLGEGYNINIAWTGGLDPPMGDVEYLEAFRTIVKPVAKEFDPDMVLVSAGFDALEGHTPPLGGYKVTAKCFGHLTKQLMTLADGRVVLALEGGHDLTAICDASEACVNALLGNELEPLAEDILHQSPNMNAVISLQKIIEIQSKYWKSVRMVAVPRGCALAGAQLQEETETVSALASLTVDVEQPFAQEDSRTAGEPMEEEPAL

Structure (SMILES) | IC50 [1] [nM] | IC50 [2] [nM] | IC50 [3] [nM] | IC50 [4] [nM] | IC50 [5] [nM] | IC50 [6] [nM]
FC(F)(F)c1nc(-c2ccc(CN(c3ccc(N4CCCC4)nc3)c3cnccn3)s2)no1 [Example AP, N-[6-(Pyrrolidin-1-yl)pyridin-3-yl]-N-({5-[5-(trifluoromethyl)-1,2,4-oxadiazol-3-yl]thiophen-2-yl}methyl)pyrazin-2-amine] | ≤ 10000 | ≤ 10000 | ≤ 10000 | > 10000 | ≤ 10000 | > 10000
FC(F)(F)c1nc(-c2ccc(CN(c3cnccn3)c3nccnn3)s2)no1 [Example DE, N-(Pyrazin-2-yl)-N-({5-[5-(trifluoromethyl)-1,2,4-oxadiazol-3-yl]thiophen-2-yl}methyl)-1,2,4-triazin-3-amine] | ≤ 1000 | ≤ 10000 | ≤ 1000 | > 10000 | ≤ 1000 | ≤ 1000
COc1cncc(N(Cc2ccc(-c3noc(C(F)(F)F)n3)s2)c2cncc(OC)n2)n1 [Example BY, 6-Methoxy-N-(6-methoxypyrazin-2-yl)-N-({5-[5-(trifluoromethyl)-1,2,4-oxadiazol-3-yl]thiophen-2-yl}methyl)pyrazin-2-amine] | ≤ 10000 | ≤ 10000 | ≤ 10000 | > 10000 | ≤ 10000 | ≤ 10000
COc1ccc(N(Cc2ccc(-c3noc(C(F)(F)F)n3)s2)c2cnccn2)nn1 [Example DG, 6-Methoxy-N-(pyrazin-2-yl)-N-({5-[5-(trifluoromethyl)-1,2,4-oxadiazol-3-yl]thiophen-2-yl}methyl)pyridazin-3-amine] | ≤ 1000 | ≤ 10000 | ≤ 10000 | > 10000 | ≤ 1000 | ≤ 1000
COc1ccc2ncnc(N(Cc3ccc(-c4noc(C(F)(F)F)n4)s3)c3cnccn3)c2c1 [Example CN, 6-Methoxy-N-(pyrazin-2-yl)-N-({5-[5-(trifluoromethyl)-1,2,4-oxadiazol-3-yl]thiophen-2-yl}methyl)quinazolin-4-amine] | ≤ 1000 | ≤ 10000 | ≤ 10000 | > 10000 | ≤ 10000 | ≤ 1000
